The numbers were not newly measured in PubChem BioAssay AID1259409 (Chemical Carcinogenesis Research Information System (CCRIS), 2018), which cites them from elsewhere.

Each structure is given as a SMILES string.

The series concerns rodent chemically induced tumor inhibition, incidence and multiplicity. The series is described as follows: CCRIS tumor inhibitor studies. As to conditions: Dose [Inhibitor]: 0, Route [Inhibitor]: ORAL, Species: RAT, Promoter: NONE USED.

As for `C[C@]12CC[C@H](O)CC1=CC[C@@H]1[C@@H]2CC[C@]2(C)C(=O)CC[C@@H]12`, the “tumour outcome (control, treated, inhibition, significance)” value (Carcinogen: DIETHYLNITROSAMINE, 55-18-5, N-METHYL-N-NITROSOUREA, 684-93-5, N-BUTYL-N-(4-HYDROXYBUTYL)NITROSAMINE, 3817-11-6, 1,2-DIM, Carcinogen: DIETHYLNITROSAMINE, 55-18-5, N-METHYL-N-NITROSOUREA, 684-93-5, N-BUTYL-N-(4-HYDROXYBUTYL)NITROSAMINE, 3817-11-6, 1,2-DIM, 0.3% IND DIET FOR 23 WK BEGINNING 1 WK POST CARCINOGEN TREATMENT (STUDY DURATION: 28 WK), Strain/Sex: F344/MALE, Target Tissue: Type of Lesion: URINARY BLADDER: PAPILLOMA, Dose [Carcinogen]: 100 MG/KG BW DEN ONCE, 20 MG/KG BW MNU ONCE ON DAYS 6,9, AND 12, 0.05% BBN IN DRINKING WATER FOR FIRST TWO WK, 40 MG/KG, Dose [Carcinogen]: 100 MG/KG BW DEN ONCE, 20 MG/KG BW MNU ONCE ON DAYS 6,9, AND 12, 0.05% BBN IN DRINKING WATER FOR FIRST TWO WK, 40 MG/KG) was 2/20 (10%), 1/20 (5%), 50%, not significant; the “tumour outcome (control, treated, inhibition, significance)” value (Carcinogen: DIETHYLNITROSAMINE, 55-18-5, N-METHYL-N-NITRSOUREA, 684-93-5, N-BUTYL-N-(4-HYDROXYBUTYL)NITROSAMINE, 3817-11-6, 1,2-DIME, Carcinogen: DIETHYLNITROSAMINE, 55-18-5, N-METHYL-N-NITRSOUREA, 684-93-5, N-BUTYL-N-(4-HYDROXYBUTYL)NITROSAMINE, 3817-11-6, 1,2-DIME, 0.3% IN DIET FOR 23 WK BEGINNING 1 WK POST CARCINOGEN TREATMENT (STUDY DURATION :28 WK), Strain/Sex: F344/MALE, Target Tissue: Type of Lesion: LARGE INTESTINE: ADENOCARCINOMA, Dose [Carcinogen]: 100 MG/KG BW DEN ONCE, 20 MG/KG BW MNU ONCE ON DAYS 6,9, AND 12, 0.05% BBN IN DRINKING WATER FOR FIRST TWO WK, 40 MG/KG, Dose [Carcinogen]: 100 MG/KG BW DEN ONCE, 20 MG/KG BW MNU ONCE ON DAYS 6,9, AND 12, 0.05% BBN IN DRINKING WATER FOR FIRST TWO WK, 40 MG/KG) is reported as 2/20 (10%), 0/20 (0%), 100%, not significant; the “tumour outcome (control, treated, inhibition, significance)” value (Carcinogen: DIMETHYLNITROSAMINE, 62-75-9, 0.6% IN DIET BEGINNING 2 WK POST CARCINOGEN DOSE AND CONTINUING FOR 26 WK (STUDY DURATION: 120 WK), Strain/Sex: WISTAR/MALE, Target Tissue: Type of Lesion: KIDNEY: ADENOCARCINOMA, Dose [Carcinogen]: 30 MG/KG ONCE) is listed as 12/30 (40%), 24/31 (77%), -93%, p<0.01; the “tumour outcome (control, treated, inhibition, significance)” value (Carcinogen: DIMETHYLNITROSAMINE, 62-75-9, 0.6% IN DIET BEGINNING 2 WK POST CARCINOGEN DOSE AND CONTINUING FOR 26 WK (STUDY DURATION: 120 WK), Strain/Sex: WISTAR/MALE, Target Tissue: Type of Lesion: KIDNEY: ADENOMA, Dose [Carcinogen]: 30 MG/KG ONCE) is listed as 12/30 (40%), 17/31 (55%), -38%, not calculated; the “tumour outcome (control, treated, inhibition, significance)” value (Carcinogen: DIMETHYLNITROSAMINE, 62-75-9, 0.6% IN DIET BEGINNING 2 WK POST CARCINOGEN DOSE AND CONTINUING FOR 26 WK (STUDY DURATION: 120 WK), Strain/Sex: WISTAR/MALE, Target Tissue: Type of Lesion: KIDNEY: EPITHELIAL TUMOR, Dose [Carcinogen]: 30 MG/KG ONCE) is recorded as 19/30 (63%), 26/31 (84%), -33%, not calculated; the “tumour outcome (control, treated, inhibition, significance)” value (Carcinogen: DIMETHYLNITROSAMINE, 62-75-9, 0.6% IN DIET BEGINNING 2 WK POST CARCINOGEN DOSE AND CONTINUING FOR 26 WK (STUDY DURATION: 120 WK), Strain/Sex: WISTAR/MALE, Target Tissue: Type of Lesion: KIDNEY: MESENCHYMAL TUMOR, Dose [Carcinogen]: 30 MG/KG ONCE) is given as 14/30 (47%), 14/31 (45%), 4%, not significant. Further, the “tumour outcome (control, treated, inhibition, significance)” value (Carcinogen: DIMETHYLNITROSAMINE, 62-75-9, 0.6% IN DIET BEGINNING 2 WK POST CARCINOGEN DOSE AND CONTINUING FOR 26 WK (STUDY DURATION: 120 WK), Strain/Sex: WISTAR/MALE, Target Tissue: Type of Lesion: KIDNEY: TUMOR, Dose [Carcinogen]: 30 MG/KG ONCE) is 26/30 (87%), 30/31 (97%), -11%, not significant. For the same compound, for the setting “Carcinogen: DIETHYLNITROSAMINE, 55-18-5, N-METHYL-N-NITROSOUREA, 684-93-5, N-BUTYLY-N-(4-HYDROXYBUTYL)NITROSAMINE, 3817-11-6, 1,2-DI, Carcinogen: DIETHYLNITROSAMINE, 55-18-5, N-METHYL-N-NITROSOUREA, 684-93-5, N-BUTYLY-N-(4-HYDROXYBUTYL)NITROSAMINE, 3817-11-6, 1,2-DI, 0.3% IN DIET FOR 23 WK BEGINNING 1 WK POST CARCINOGEN TREATMENT (STUDY DURATION: 28 WK), Strain/Sex: F344/MALE, Target Tissue: Type of Lesion: LIVER: CARCINOMA, Dose [Carcinogen]: 100 MG/KG BW DEN ONCE, 20 MG/KG BW MNU ONCE ON DAYS 6,9, AND 12, 0.05% BBN IN DRINKING WATER FOR FIRST TWO WK, 40 MG/KG, Dose [Carcinogen]: 100 MG/KG BW DEN ONCE, 20 MG/KG BW MNU ONCE ON DAYS 6,9, AND 12, 0.05% BBN IN DRINKING WATER FOR FIRST TWO WK, 40 MG/KG”, the outcome is 0/20 (0%), 2/20 (10%), 100%, not significant.
